ChEMBL document CHEMBL4190162, “SAR and identification of 2-(quinolin-4-yloxy)acetamides as Mycobacterium tuberculosis cytochrome bc1 inhibitors” (Medchemcomm, 2016)
Converted amounts (≈) assume the structure as drawn. The source made the active and inactive calls. The rule behind the calls is not given here.

How the values were obtained:
[1] = tested on: Mycobacterium tuberculosis; experiment: Antimycobacterial activity against Mycobacterium tuberculosis H37Rv after 2 weeks by microplate alamar blue assay; format: functional; conditions: 336 h
[2] = tested on: Mycobacterium tuberculosis; experiment: Antimycobacterial activity against Mycobacterium tuberculosis H37Rv measured after 1 week; format: functional; conditions: 168 h
[3] = tested on: Mycobacterium tuberculosis; experiment: Antimycobacterial activity against Mycobacterium tuberculosis H37Rv measured after 2 weeks; format: functional; conditions: 336 h
[4] = tested on: Mycobacterium tuberculosis; experiment: Antimycobacterial activity against Mycobacterium tuberculosis H37Rv BSG001; format: functional, organism-based
[5] = tested on: Mycobacterium tuberculosis H37Rv; experiment: Inhibition of Mycobacterium tuberculosis H37Rv cytochrome bc1 oxidase assessed as reduction in ATP level measured up to 24 hrs under anaerobic condition
[6] = Cytotoxicity against human HepG2 cells after 24 to 48 hrs in presence of galactose by trypan blue dye-based hemocytometric method; format: cell-based
[7] = Cytotoxicity against human HepG2 cells after 24 to 48 hrs in presence of glucose by trypan blue dye-based hemocytometric method; format: cell-based
[8] = tested on: Mycobacterium tuberculosis; experiment: Antimycobacterial activity against Mycobacterium tuberculosis H37Rv measured after 6 days by resazurin dye based fluorescence assay; format: functional; conditions: 144 h
Escherichia coli = experiment: Antibacterial activity against Escherichia coli 25922; format: functional, organism-based; conditions: ATCC 25922
Staphylococcus aureus = experiment: Antibacterial activity against Staphylococcus aureus XEN36; format: functional, organism-based
[9] = tested on: Mycolicibacterium smegmatis; experiment: Antibacterial activity against Mycobacterium smegmatis; format: functional, organism-based
[10] = tested on: Mycobacteroides abscessus; experiment: Antibacterial activity against Mycobacterium abscessus; format: functional, organism-based

For `COc1ccc2nc(C)cc(OCC(=O)NCc3ccccc3)c2c1`, the MIC [1] was 2.32 µM (≈ 0.78 µg/mL), the MIC [2] was 3.57 µM (≈ 1.2 µg/mL) and the MIC [3] was over 148 µM. For the same molecule, the Activity [4] was “inactive”, the inhibition [5] was “Active” and the CC50 [6] was over 149 µM. It also gave a CC50 [7] of over 149 µM and an MIC90 [8] of 0.3 to 3.3 µM (≈ 0.101 to 1.11 µg/mL).
`COc1ccc2nc(C)cc(OCC(=O)Nc3cccc(C)c3)c2c1` gave an MIC90 [8] of 0.3 to 3.3 µM (≈ 0.101 to 1.11 µg/mL).
Work on `COc1ccc2nc(C)cc(OCC(=O)Nc3ccccc3OC)c2c1` yielded an MIC [1] of 1.11 µM (≈ 0.391 µg/mL), an MIC [2] of 2.21 µM (≈ 0.779 µg/mL) and an MIC [3] of 53.9 µM (≈ 19 µg/mL). For the same molecule, the Activity [4] was “inactive”, the inhibition [5] was “Active” and the CC50 [6] was 19.6 µM. It also gave a CC50 [7] of over 142 µM and an MIC90 [8] of 0.3 to 3.3 µM (≈ 0.106 to 1.16 µg/mL).
For `Cc1cc(OCC(=O)Nc2ccccc2)c2cc(Br)ccc2n1`, the MIC90 [8] was 0.3 to 3.3 µM (≈ 0.111 to 1.23 µg/mL).
Molecule `COc1ccccc1NC(=O)COc1cc(C)nc2ccc(C(F)(F)F)cc12` has an MIC [1] of over 128 µM, an MIC [2] of over 128 µM and an MIC [3] of over 128 µM. The Activity [4] was “inactive”, the inhibition [5] was “Active” and the Activity (Escherichia coli) was “inactive”. The Activity (Staphylococcus aureus) was “inactive”, the Activity [9] was “inactive” and the Activity [10] was “inactive”. It also gave a CC50 [6] of over 128 µM and a CC50 [7] of over 128 µM.
`Cc1cc(OCC(=O)NCc2ccccc2)c2cc(Br)ccc2n1` gave an MIC90 [8] of 0.3 to 3.3 µM (≈ 0.116 to 1.27 µg/mL).
`COc1ccc2nc(C)cc(OCC(=O)Nc3ccccc3)c2c1` gave an MIC [1] of 0.62 µM (≈ 0.2 µg/mL), an MIC [2] of 1.21 µM (≈ 0.39 µg/mL) and an MIC [3] of over 155 µM. The Activity [4] was “inactive”, the inhibition [5] was “Active” and the Activity (Escherichia coli) was “inactive”. For the same molecule, the Activity (Staphylococcus aureus) was “inactive”, the Activity [9] was “inactive” and the Activity [10] was “inactive”. For the same molecule, the CC50 [6] was 118 µM and the CC50 [7] was over 155 µM.
In the case of `COc1ccc2nc(C)cc(OCC(=O)Nc3ccccc3Cl)c2c1`, the MIC [1] is reported as 0.56 µM (≈ 0.2 µg/mL), the MIC [2] is reported as 26.4 µM (≈ 9.4 µg/mL) and the MIC [3] is reported as 53.2 µM (≈ 19 µg/mL). For the same molecule, the Activity [4] was “inactive”, the inhibition [5] was “Active” and the Activity (Escherichia coli) was “inactive”. For the same molecule, the Activity (Staphylococcus aureus) was “inactive”, the Activity [9] was “inactive” and the Activity [10] was “inactive”. The CC50 [6] was over 140 µM and the CC50 [7] was over 140 µM.
With `COc1ccc(OC)c(CCNC(=O)COc2cc(C)nc3ccc(OC)cc23)c1` the MIC [1] was 60.9 µM (≈ 25 µg/mL), the MIC [2] was 122 µM (≈ 50 µg/mL) and the MIC [3] was over 122 µM. For the same molecule, the Activity [4] was “inactive”, the inhibition [5] was “Active” and the Activity (Escherichia coli) was “inactive”. The Activity (Staphylococcus aureus) was “inactive”, the Activity [9] was “inactive” and the Activity [10] was “inactive”. For the same molecule, the CC50 [6] was over 122 µM and the CC50 [7] was over 122 µM.
